Laboratory results as given in publication PMC10743905, “Design, Synthesis, and In Vitro and In Vivo Bioactivity Studies of Hydrazide–Hydrazones of 2,4-Dihydroxybenzoic Acid” (International Journal of Molecular Sciences, 2023).
≈ marks a conversion by molar mass, not a printed value.

What follows are compounds tested on Bordetella bronchiseptica ATCC 4617 (assay: Broth microdilution MIC/MBC). Settings: ATCC4617.
Assay type: cell-based
Method in brief: (§1)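 MICs were determined by broth microdilution using two-fold compound dilutions (final 1000-0.488 µg/ml) in Mueller-Hinton broth for bacteria or RPMI 1640 with MOPS for yeasts. Inocula were 0.5 McFarland suspensions in 0.85% NaCl, following EUCAST/CLSI guidelines; compounds were dissolved in DMSO.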
`O=C(N/N=C/c1ccccc1Br)c1ccc(O)cc1O` [Compound 23, N-[(2-bromophenyl)methylidene]-2,4-dihydroxybenzohydrazide] was tested, and the MIC was > 1000 µg/mL. In the case of `O=C(N/N=C/c1ccccc1F)c1ccc(O)cc1O` [Compound 24, N-[(2-fluorophenyl)methylidene]-2,4-dihydroxybenzohydrazide], the MIC is reported as > 1000 µg/mL.

What follows are compounds tested on Escherichia coli ATCC 25922 (assay: Broth microdilution MIC/MBC). Settings: ATCC25922.
Assay type: cell-based
Method in brief: as §1
`O=C(N/N=C/c1ccccc1Br)c1ccc(O)cc1O` [Compound 23, N-[(2-bromophenyl)methylidene]-2,4-dihydroxybenzohydrazide] was tested, and the MIC was > 1000 µg/mL. In the case of `O=C(N/N=C/c1ccccc1F)c1ccc(O)cc1O` [Compound 24, N-[(2-fluorophenyl)methylidene]-2,4-dihydroxybenzohydrazide], the MIC is reported as > 1000 µg/mL.

What follows are compounds tested on Enterococcus faecalis ATCC 29212 (assay: Broth microdilution MIC/MBC). Settings: not given.
Assay type: cell-based
Method in brief: as §1
In the case of `O=C(N/N=C/c1ccccc1F)c1ccc(O)cc1O` [Compound 24, N-[(2-fluorophenyl)methylidene]-2,4-dihydroxybenzohydrazide], the MBC/MIC is reported as > 1.

Same assay, conditions: ATCC29212, read-out: MBC
With `O=C(N/N=C/c1ccccc1F)c1ccc(O)cc1O` [Compound 24, N-[(2-fluorophenyl)methylidene]-2,4-dihydroxybenzohydrazide] the MBC was > 1000 µg/mL.

Same assay, conditions: ATCC29212, read-out: MIC
With `O=C(N/N=C/c1ccccc1Br)c1ccc(O)cc1O` [Compound 23, N-[(2-bromophenyl)methylidene]-2,4-dihydroxybenzohydrazide] the MIC was > 1000 µg/mL. `O=C(N/N=C/c1ccccc1F)c1ccc(O)cc1O` [Compound 24, N-[(2-fluorophenyl)methylidene]-2,4-dihydroxybenzohydrazide] gave an MIC of 1000 µg/mL (≈ 3.65 mM).

The compounds below were run on Bacillus cereus ATCC 10876 (assay: Broth microdilution MIC/MBC). Settings: not given.
Assay type: cell-based
Method in brief: as §1
For `O=C(N/N=C/c1ccccc1F)c1ccc(O)cc1O` [Compound 24, N-[(2-fluorophenyl)methylidene]-2,4-dihydroxybenzohydrazide], the MBC/MIC was > 1.

Same assay, conditions: ATCC10876
With `O=C(N/N=C/c1ccccc1F)c1ccc(O)cc1O` [Compound 24, N-[(2-fluorophenyl)methylidene]-2,4-dihydroxybenzohydrazide] the MBC was > 1000 µg/mL.

Same assay, conditions: ATCC10876, read-out: MIC
`O=C(N/N=C/c1ccccc1Br)c1ccc(O)cc1O` [Compound 23, N-[(2-bromophenyl)methylidene]-2,4-dihydroxybenzohydrazide] was tested, and the MIC was > 1000 µg/mL. Compound `O=C(N/N=C/c1ccccc1F)c1ccc(O)cc1O` [Compound 24, N-[(2-fluorophenyl)methylidene]-2,4-dihydroxybenzohydrazide] has an MIC of 1000 µg/mL (≈ 3.65 mM).

What follows are compounds tested on Klebsiella pneumoniae ATCC 13883 (assay: Broth microdilution MIC/MBC). Settings: ATCC13883.
Assay type: cell-based
Method in brief: as §1
In the case of `O=C(N/N=C/c1ccccc1Br)c1ccc(O)cc1O` [Compound 23, N-[(2-bromophenyl)methylidene]-2,4-dihydroxybenzohydrazide], the MIC is reported as > 1000 µg/mL. For `O=C(N/N=C/c1ccccc1F)c1ccc(O)cc1O` [Compound 24, N-[(2-fluorophenyl)methylidene]-2,4-dihydroxybenzohydrazide], the MIC was > 1000 µg/mL.

What follows are compounds tested on Candida krusei ATCC 14243 (assay: Broth microdilution MIC/MFC). Settings: not given.
Assay type: cell-based
Method in brief: as §1
For `O=C(N/N=C/c1ccccc1F)c1ccc(O)cc1O` [Compound 24, N-[(2-fluorophenyl)methylidene]-2,4-dihydroxybenzohydrazide], the MFC/MIC was > 1.

Same assay, conditions: Pichia kudriavzevii, ATCC14243, read-out: MFC
With `O=C(N/N=C/c1ccccc1F)c1ccc(O)cc1O` [Compound 24, N-[(2-fluorophenyl)methylidene]-2,4-dihydroxybenzohydrazide] the MFC was > 1000 µg/mL.

Same assay, conditions: Pichia kudriavzevii, ATCC14243, read-out: MIC
For `O=C(N/N=C/c1ccccc1Br)c1ccc(O)cc1O` [Compound 23, N-[(2-bromophenyl)methylidene]-2,4-dihydroxybenzohydrazide], the MIC was > 1000 µg/mL. `O=C(N/N=C/c1ccccc1F)c1ccc(O)cc1O` [Compound 24, N-[(2-fluorophenyl)methylidene]-2,4-dihydroxybenzohydrazide] showed an MIC of 1000 µg/mL (≈ 3.65 mM).

The compounds below were run on Candida parapsilosis ATCC 22019 (assay: Broth microdilution MIC/MFC). Settings: not given.
Assay type: cell-based
Method in brief: as §1
For `O=C(N/N=C/c1ccccc1Br)c1ccc(O)cc1O` [Compound 23, N-[(2-bromophenyl)methylidene]-2,4-dihydroxybenzohydrazide], the MFC/MIC was > 1. In the case of `O=C(N/N=C/c1ccccc1F)c1ccc(O)cc1O` [Compound 24, N-[(2-fluorophenyl)methylidene]-2,4-dihydroxybenzohydrazide], the MFC/MIC is reported as > 1.

Same assay, conditions: Lodderomyces parapsilosis, ATCC22019, read-out: MFC
`O=C(N/N=C/c1ccccc1Br)c1ccc(O)cc1O` [Compound 23, N-[(2-bromophenyl)methylidene]-2,4-dihydroxybenzohydrazide] was tested, and the MFC was > 1000 µg/mL. With `O=C(N/N=C/c1ccccc1F)c1ccc(O)cc1O` [Compound 24, N-[(2-fluorophenyl)methylidene]-2,4-dihydroxybenzohydrazide] the MFC was > 1000 µg/mL.

Same assay, conditions: Lodderomyces parapsilosis, ATCC22019, read-out: MIC
For `O=C(N/N=C/c1ccccc1Br)c1ccc(O)cc1O` [Compound 23, N-[(2-bromophenyl)methylidene]-2,4-dihydroxybenzohydrazide], the MIC was 1000 µg/mL (≈ 2.98 mM). Compound `O=C(N/N=C/c1ccccc1F)c1ccc(O)cc1O` [Compound 24, N-[(2-fluorophenyl)methylidene]-2,4-dihydroxybenzohydrazide] has an MIC of 1000 µg/mL (≈ 3.65 mM).

Each compound was assayed on Bacillus subtilis ATCC 6633 (assay: Broth microdilution MIC/MBC). Settings: not given.
Assay type: cell-based
Method in brief: as §1
In the case of `O=C(N/N=C/c1ccccc1F)c1ccc(O)cc1O` [Compound 24, N-[(2-fluorophenyl)methylidene]-2,4-dihydroxybenzohydrazide], the MBC/MIC is reported as > 2.

Same assay, conditions: ATCC6633
With `O=C(N/N=C/c1ccccc1F)c1ccc(O)cc1O` [Compound 24, N-[(2-fluorophenyl)methylidene]-2,4-dihydroxybenzohydrazide] the MBC was > 1000 µg/mL.

Same assay, conditions: ATCC6633, read-out: MIC
`O=C(N/N=C/c1ccccc1Br)c1ccc(O)cc1O` [Compound 23, N-[(2-bromophenyl)methylidene]-2,4-dihydroxybenzohydrazide] was tested, and the MIC was > 1000 µg/mL. `O=C(N/N=C/c1ccccc1F)c1ccc(O)cc1O` [Compound 24, N-[(2-fluorophenyl)methylidene]-2,4-dihydroxybenzohydrazide] was tested, and the MIC was 500 µg/mL (≈ 1.82 mM).

What follows are compounds tested on Danio rerio embryos (assay: Fish Embryo Acute Toxicity (FET) test, OECD No. 236). Settings: FET test, based on LC50.
Method: Wild-type AB strain zebrafish (Danio rerio) were housed in the Experimental Medicine Centre of Medical University of Lublin (Lublin, Poland), where all the experimental procedures on embryos and larvae were carried out. The animals were kept on a recirculating water supply at 26 ± 1 °C and a 10/14 dark–light cycle, and they were fed with artemia and commercial feed. Danio rerio embryos were obtained from females between 4 and 15 months of age. […] In order to avoid genetic bias in the study, eggs were randomly collected from at least three breeding groups, rinsed, and placed in Petri dishes in the cultured medium, which for Danio rerio is E3 solution. […] In accordance with the legislation of the European Union and Poland, the experiments performed on the earliest life-stages of Danio rerio until 120 h post-fertilization (120 hpf), not defined as protected, are not subject to regulations for animal experimentation.
They address the testing of chemicals using the Fish Embryo Acute Toxicity (FET) test with the species Danio rerio.
Immediately after fertilization, eggs were placed in sterile 24-well plates and exposed for 96 h to at least five concentrations of the test chemical, ranging from 1 to 500 µM and prepared ex tempore on each day of exposure, according to the principle of one egg per well and one concentration per plate. In each plate, 20 wells were filled with the solutions of the tested substance, and 4 wells of the last column were a negative internal control with E3 medium. Each well was filled with 2 mL of solution. Positive control plates were also prepared according to this scheme with 4 mg/L of 3,4-dichloroaniline (Sigma-Aldrich, Poznań, Poland) and a negative control with E3, and a negative solvent control with 1% DMSO, which was used as a solvent for the tested substances. At four time points, microscopic observations were made every 24 h. As indicators of mortality (so-called terminal observations; when at least one of these occurs, embryonic death is declared), the following were recorded: the coagulation of embryos, a lack of somite formation, a lack of detachment of the tail from the yolk sac and a lack of a heartbeat, which was observed from the 48th hour of the study. To confirm the absence of a heartbeat, a microscopic observation was conducted at 80× magnification for one minute. Then, the solutions of the tested chemicals, to maintain their constant composition throughout the test, were replaced with fresh ones, and the plates were incubated for another 24 h in an incubator at 26 ± 1 °C. […] In addition, a quantitative and qualitative summary of the morphological and physiological abnormalities that occurred in the tested Danio rerio embryos and larvae was also made. These included yolk sac edema, pericardial edema, spinal flexure, head deformities, tail deformities, developmental delay defined as a lack of hatching success for 96 hpf larvae, and also bradycardia.
Regression analysis was performed with Excel, and the above-mentioned values were obtained from the linear type of regression analysis. […] The results obtained from the heart rate study of 96 hpf zebrafish larvae were subjected to statistical analysis using one-way analysis of variance (ANOVA) and a post hoc Bonferroni test. The significance level was taken as p < 0.05.
With `O=C(N/N=C/c1ccccc1Br)c1ccc(O)cc1O` [Compound 23, N-[(2-bromophenyl)methylidene]-2,4-dihydroxybenzohydrazide] the “toxicity for zebrafish embryos and larvae (in words)” value was “quite toxic”. `O=C(N/N=C/c1ccccc1F)c1ccc(O)cc1O` [Compound 24, N-[(2-fluorophenyl)methylidene]-2,4-dihydroxybenzohydrazide] was tested, and the “toxicity for zebrafish embryos and larvae (in words)” value was “nontoxic”.

Same assay, conditions: zebrafish embryos and larvae, 100 µM (35.52 mg/L)
In the case of `O=C(N/N=C/c1ccccc1Br)c1ccc(O)cc1O` [Compound 23, N-[(2-bromophenyl)methylidene]-2,4-dihydroxybenzohydrazide], the “percentage of yolk sac edema” value is reported as 80%.

Same assay, conditions: zebrafish larvae, 96 h, 50 µM (13.71 mg/L)
With `O=C(N/N=C/c1ccccc1F)c1ccc(O)cc1O` [Compound 24, N-[(2-fluorophenyl)methylidene]-2,4-dihydroxybenzohydrazide] the “heart rate vs negative (E3) and solvent (1% DMSO) controls” value (from here on “heart rate … (1% DMSO) controls”) was “no changes”.

Same assay, conditions: zebrafish larvae, 96 h, 100 µM (27.42 mg/L), p < 0.01
`O=C(N/N=C/c1ccccc1F)c1ccc(O)cc1O` [Compound 24, N-[(2-fluorophenyl)methylidene]-2,4-dihydroxybenzohydrazide] was tested, and the “heart rate … (1% DMSO) controls” value was “decrease in heartbeat (bradycardia)”.

Same assay, conditions: zebrafish larvae, 96 h, 500 µM (137.12 mg/L), p < 0.001
`O=C(N/N=C/c1ccccc1F)c1ccc(O)cc1O` [Compound 24, N-[(2-fluorophenyl)methylidene]-2,4-dihydroxybenzohydrazide] was tested, and the “heart rate … (1% DMSO) controls” value was “the reduction was very statistically significant”.

Same assay, conditions: zebrafish, 100 µM (27.42 mg/L)
With `O=C(N/N=C/c1ccccc1F)c1ccc(O)cc1O` [Compound 24, N-[(2-fluorophenyl)methylidene]-2,4-dihydroxybenzohydrazide] the “percentage of pericardial edema” value was 65%.

Same assay, conditions: zebrafish, 500 µM (137.12 mg/L)
With `O=C(N/N=C/c1ccccc1F)c1ccc(O)cc1O` [Compound 24, N-[(2-fluorophenyl)methylidene]-2,4-dihydroxybenzohydrazide] the “percentage of pericardial edema” value was 85%.
